“Also recorded” adds a separate entry of the source. Read-outs that look alike come from different tables or passages of the source.
Legend:
PSMA = target: T1, PSMA (Homo sapiens, UniProt Q04609); assay: PSMA inhibition assay (fluorescence-based, NAAG hydrolysis, Amplex Red); type: biochemical; conditions: for Ki: lysates of LNCaP cell extracts, 4 μM NAAG, Cheng-Prusoff conversion
T1 construct: endogenous in cells; host or cells: LNCaP cell lysate
Protocol: The PSMA inhibitory activity of 1, 2 and DKFZ-PSMA-11 and the corresponding natural Ga-labeled analogs Ga-1 and Ga-2 were determined using a fluorescence-based assay according to a previously reported procedure (Banerjee et al. (2011) Angewandte Chemie 50, 9167-70) (Table 1). Briefly, lysates of LNCaP cell extracts (25 μL) were incubated with the inhibitor (12.5 μL) in the presence of 4 μM N-acetylaspartylglutamate (NAAG) (12.5 μL) for 2 h. The amount of the glutamate released by NAAG hydrolysis was measured by incubating with a working solution (50 μL) of the Amplex Red Glutamic Acid Kit (Life Technologies, Grand Island, N.Y.) for 1 h.
Fluorescence was measured with a VICTOR3V multilabel plate reader (Perkin Elmer Inc., Waltham, Mass.) with excitation at 490 nm and emission at 642 nm. Inhibition curves were determined using semi-log plots and IC50 values were determined at the concentration at which enzyme activity was inhibited by 50%. Enzyme inhibitory constants (Ki values) were generated using the Cheng-Prusoff conversion (Cheng et al. (1973) Biochemical pharmacology 22, 3099-108). Assays were performed in triplicate. Data analysis was performed using GraphPad Prism version 4.00 for Windows (GraphPad Software, San Diego, Calif.).

[1] = test system: PSMA+ PC3 PIP and PSMA− PC3 flu tumors; assay: Tissue biodistribution in mice bearing PSMA+ PC3 PIP and PSMA− PC3 flu tumors; conditions: mouse, in vivo
[2] = chelating agent with gallium, cited from earlier work
[3] = Hydrophilicity/lipophilicity judged from HPLC retention (RP C8); type: physicochemical; conditions: based on HPLC retention time
[4] = test system: PSMA+ PC3 PIP and PSMA− PC3 flu tumors
[5] = 1 h post-injection, mean ± SD, n = 4
[6] = 2 h post-injection, mean ± SD, n = 4
[7] = 3 h post-injection, mean ± SD, n = 4

T1 sequence (Q04609 whole entry): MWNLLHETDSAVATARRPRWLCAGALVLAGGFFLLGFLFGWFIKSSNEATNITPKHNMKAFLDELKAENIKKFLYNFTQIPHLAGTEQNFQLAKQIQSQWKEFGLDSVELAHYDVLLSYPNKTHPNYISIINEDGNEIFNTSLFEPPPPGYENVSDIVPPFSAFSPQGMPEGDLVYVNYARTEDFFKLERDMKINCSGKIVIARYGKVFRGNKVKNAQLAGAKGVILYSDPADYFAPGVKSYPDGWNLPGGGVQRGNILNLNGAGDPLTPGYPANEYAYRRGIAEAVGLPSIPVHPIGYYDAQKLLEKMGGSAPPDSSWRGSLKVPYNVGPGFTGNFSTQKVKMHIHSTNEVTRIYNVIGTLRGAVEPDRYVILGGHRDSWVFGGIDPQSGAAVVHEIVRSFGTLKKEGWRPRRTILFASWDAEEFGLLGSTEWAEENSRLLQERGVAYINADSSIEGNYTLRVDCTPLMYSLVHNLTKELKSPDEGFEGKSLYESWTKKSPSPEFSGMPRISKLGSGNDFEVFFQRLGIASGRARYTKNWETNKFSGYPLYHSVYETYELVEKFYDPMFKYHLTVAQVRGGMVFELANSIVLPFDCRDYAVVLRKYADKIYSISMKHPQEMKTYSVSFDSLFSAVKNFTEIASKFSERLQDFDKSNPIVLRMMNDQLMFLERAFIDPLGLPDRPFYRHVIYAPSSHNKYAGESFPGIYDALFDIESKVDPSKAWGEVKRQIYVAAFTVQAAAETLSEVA

Compound: O=C(O)CCC(NC(=O)NC(CCCCNC(=O)CCCCCCC(=O)NC(CCCCNC(=S)Nc1ccc(CC2CN(CC(=O)O)CCN(CC(=O)O)CCN2CC(=O)O)cc1)C(=O)O)C(=O)O)C(=O)O (centres unmarked) [Compound 2]
- Ki (PSMA): 0.81 nM

Compound: O=C(O)CCC(NC(=O)NC(CCCCNC(=O)CCCCCCC(=O)NCCCCC(NC(=O)C(Cc1ccccc1)NC(=O)C(Cc1ccccc1)NC(=O)CN1CCN(CC(=O)O)CCN(CC(=O)O)CCN(CC(=O)O)CC1)C(=O)O)C(=O)O)C(=O)O (centres unmarked) [Compound 1]
- Ki (PSMA): 0.7 nM

Compound: O=C([O-])CN1CCN(CC(=O)[O-])CC(Cc2ccc(NC(=S)NCCCCC(NC(=O)CCCCCCC(=O)NCCCCC(NC(=O)NC(CCC(=O)O)C(=O)O)C(=O)O)C(=O)O)cc2)N(CC(=O)[O-])CC1.[68Ga+3] (centres unmarked) [^68Ga-2]
- rate of clearance from tissues, comparison of the three radiotracers [1]: fastest rate of clearance from all tissues

Compound: O=C(O)CN1CCN(CC(=O)O)CCN(CC(=O)O)CCN(CC(=O)O)CC1 [DOTA, 1,4,7,10-tetraazacyclododecane-1,4,7,10-tetraacetic acid]
- stability constant, KML, for 68Ga ([2]; the values are: log stability constant): 21.3

Compound: O=C([O-])CN1CCN(CC(=O)[O-])CCN(CC(=O)NC(Cc2ccccc2)C(=O)NC(Cc2ccccc2)C(=O)NC(CCCCNC(=O)CCCCCCC(=O)NCCCCC(NC(=O)NC(CCC(=O)O)C(=O)O)C(=O)O)C(=O)O)CCN(CC(=O)[O-])CC1.[Ga+3] (centres unmarked) [Ga-1]
- Ki (PSMA): 0.33 nM

Compound: O=C([O-])CN(CCN(CC(=O)[O-])Cc1cc(CCC(=O)NCCCCCC(=O)NCCCCC(NC(=O)NC(CCC(=O)O)C(=O)O)C(=O)O)ccc1[O-])Cc1cc(CCC(=O)O)ccc1[O-].[Ga+3] (centres unmarked) [Ga-DKFZ-PSMA-11]
- hydrophilicity/lipophilicity rank in the series [3]: most hydrophilic

Compound: O=C([O-])CN(CCN(CC(=O)[O-])Cc1cc(CCC(=O)NCCCCCC(=O)NCCCCC(NC(=O)NC(CCC(=O)O)C(=O)O)C(=O)O)ccc1[O-])Cc1cc(CCC(=O)O)ccc1[O-].[68Ga+3] (centres unmarked) [^68Ga-DKFZ-PSMA-11, reference compound]
- hydrophilicity/lipophilicity rank in the series [3]: most hydrophilic
- PSMA+ PC3 PIP-to-PSMA− PC3 flu ratio ([4]; 1 h post-injection): 46.62±7.57
- PIP:blood ratio [4, 5]: 35.45 ± 13.43
- PIP:flu (PSMA+ PC3 PIP-to-PSMA− PC3 flu tumor uptake ratio) [4, 5]: 46.62 ± 17.57
- PSMA+ PC3 PIP tumor uptake [4, 5]: 25.96 ± 9.69 % ID/g
- PSMA− PC3 flu tumor uptake [4, 5]: 0.57 ± 0.14 % ID/g
- blood uptake [4, 5]: 0.75 ± 0.20 % ID/g
- heart uptake [4, 5]: 0.42 ± 0.16 % ID/g
- kidney uptake [4, 5]: 133.24 ± 21.08 % ID/g
- liver uptake [4, 5]: 0.75 ± 0.19 % ID/g
- lung uptake [4, 5]: 2.21 ± 0.48 % ID/g
- muscle uptake [4, 5]: 0.32 ± 0.12 % ID/g
- salivary gland uptake [4, 5]: 1.42 ± 0.33 % ID/g
- small intestine uptake [4, 5]: 0.39 ± 0.09 % ID/g
- spleen uptake [4, 5]: 12.35 ± 3.75 % ID/g
- PSMA+ PC3 PIP-to-PSMA− PC3 flu ratio ([4]; 2 h post-injection): 57.68±27.10
- PIP:blood ratio [4, 6]: 51.88 ± 10.82
- PIP:flu (PSMA+ PC3 PIP-to-PSMA− PC3 flu tumor uptake ratio) [4, 6]: 57.68 ± 27.10
- PIP:kidney ratio [4, 6]: 0.24 ± 0.04
- PSMA+ PC3 PIP tumor uptake [4, 6]: 21.08 ± 1.17 % ID/g
- PSMA− PC3 flu tumor uptake [4, 6]: 0.41 ± 0.17 % ID/g
- blood uptake [4, 6]: 0.41 ± 0.06 % ID/g
- heart uptake [4, 6]: 0.28 ± 0.06 % ID/g
- kidney uptake [4, 6]: 88.56 ± 20.09 % ID/g
- liver uptake [4, 6]: 0.33 ± 0.05 % ID/g
- lung uptake [4, 6]: 2.07 ± 0.68 % ID/g
- muscle uptake [4, 6]: 0.19 ± 0.09 % ID/g
- salivary gland uptake [4, 6]: 1.02 ± 0.22 % ID/g
- small intestine uptake [4, 6]: 0.19 ± 0.07 % ID/g
- spleen uptake [4, 6]: 8.87 ± 1.50 % ID/g
- PSMA+ PC3 PIP-to-PSMA− PC3 flu ratio ([4]; 3 h post-injection): 110.57±21.27
- PIP:blood ratio [4, 7]: 79.55 ± 9.83
- PIP:kidney ratio [4, 7]: 0.22 ± 0.04
- PIP:salivary gland ratio [4, 7]: 31.40 ± 4.85
- PSMA+ PC3 PIP tumor uptake [4, 7]: 26.86±5.59 % ID/g
- PSMA− PC3 flu tumor uptake [4, 7]: 0.25 ± 0.07 % ID/g
- blood uptake [4, 7]: 0.34 ± 0.06 % ID/g
- heart uptake [4, 7]: 0.20 ± 0.04 % ID/g
- kidney uptake [4, 7]: 119.54 ± 15.49 % ID/g
- liver uptake [4, 7]: 0.38 ± 0.15 % ID/g
- lung uptake [4, 7]: 1.26 ± 0.20 % ID/g
- muscle uptake [4, 7]: 0.14 ± 0.02 % ID/g
- salivary gland uptake [4, 7]: 0.86 ± 0.12 % ID/g
- small intestine uptake [4, 7]: 0.17 ± 0.06 % ID/g
- spleen uptake [4, 7]: 7.18 ± 2.25 % ID/g
- spleen uptake, comparison with ^68Ga-1 or ^68Ga-2 ([4]; all time-points, P<0.04): higher spleen uptake
- salivary gland uptake, comparison with ^68Ga-1 and ^68Ga-2 ([4]; up to 3 h after injection, P<0.001): significantly higher salivary gland uptake
- uptake and retention in normal tissues (kidney, blood, spleen, salivary glands, PSMA-negative PC3 flu tumors), comparison ([4]; up to 3 h post-injection): highest uptake and retention

Compound: O=C(O)CN1CCN(CC(=O)O)CCN(CC(=O)O)CC1 [NOTA, 1,4,7-triazacyclononane-1,4,7-trisacetic acid]
- stability constant, KML, for 68Ga [2]: 31.1

Compound: O=C(O)CCc1ccc(O)c(CN(CCN(CC(=O)O)Cc2cc(CCC(=O)NCCCCCC(=O)NCCCC[C@H](NC(=O)N[C@@H](CCC(=O)O)C(=O)O)C(=O)O)ccc2O)CC(=O)O)c1 [DKFZ-PSMA-11, Glu-urea-Lys-(Ahx)-HBED-CC, reference compound]
- PSMA-binding affinity relative to Ga-1 and Ga-2 (PSMA): ten-fold higher
- Ki (PSMA): 0.03 nM
- hydrophilicity/lipophilicity rank in the series [3]: least hydrophilic; also recorded: most lipophilic

Compound: O=C([O-])CN1CCN(CC(=O)[O-])CC(Cc2ccc(NC(=S)NCCCCC(NC(=O)CCCCCCC(=O)NCCCCC(NC(=O)NC(CCC(=O)O)C(=O)O)C(=O)O)C(=O)O)cc2)N(CC(=O)[O-])CC1.[Ga+3] (centres unmarked) [Ga-2]
- Ki (PSMA): 0.38 nM

Reference: patent US10717750B2, “68Ga-labeled NOTA-chelated PSMA-targeted imaging and therapeutic agents” (THE JOHNS HOPKINS UNIVERSITY, priority 2009, dated 2020)
